Laboratory results reported in US9492453B2 (priority 2007, dated 2016).
Where two headings read alike, the source gives them in different places.

Legend:
[1] = Human dose prediction (estimated human pharmacokinetic parameters); settings: plasma; from rat and dog Vss corrected by Fu, human/Fu (rat or dog); read-out: Human Vss (Volume of Distribution at Steady State), estimated
[2] = target: AKT1 (PKBα) (Homo sapiens (Human), UniProt P31749); settings: read-out: In vitro PKBα Mean IC50, AKT1/PKBα active enzyme, Caliper LabChip LC3000
Chain of AKT1 (PKBα) (P31749 whole entry): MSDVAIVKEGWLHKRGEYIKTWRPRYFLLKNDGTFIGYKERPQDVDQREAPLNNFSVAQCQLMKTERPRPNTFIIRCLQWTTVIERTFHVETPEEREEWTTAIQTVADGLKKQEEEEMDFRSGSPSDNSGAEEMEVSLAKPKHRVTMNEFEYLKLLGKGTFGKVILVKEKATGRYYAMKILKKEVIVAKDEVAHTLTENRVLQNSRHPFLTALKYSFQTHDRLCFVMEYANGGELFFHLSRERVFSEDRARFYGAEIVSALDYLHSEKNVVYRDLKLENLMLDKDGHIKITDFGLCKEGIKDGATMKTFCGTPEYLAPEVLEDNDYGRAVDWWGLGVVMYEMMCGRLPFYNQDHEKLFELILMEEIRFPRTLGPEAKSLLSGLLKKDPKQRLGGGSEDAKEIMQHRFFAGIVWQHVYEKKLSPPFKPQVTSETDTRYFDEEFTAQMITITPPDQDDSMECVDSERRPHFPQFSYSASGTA

[3] = system: PKB (Akt); settings: read-out: Cellular PKB Mean IC50; MDA-MB-468 cells, phosphorylation of Serine-9 of GSK-3β, 2 hours incubation

Q: For `NC1(C(=O)N[C@@H](CCO)c2ccc(Cl)cc2)CCN(c2ncnc3[nH]ccc23)CC1` [Example 9, (S)-4-amino-N-(1-(4-chlorophenyl)-3-hydroxypropyl)-1-(7H-pyrrolo[2,3-d]pyrimidin-4-yl)piperidine-4-carboxamide], which Vd [1] is on record?
A: 3.3 L/kg

Q: What does the source list for `NC1(C(=O)N[C@@H](CCN2CCOCC2)c2ccc(Cl)cc2)CCN(c2ncnc3[nH]ccc23)CC1` [Example 51, 4-amino-N-[(1S)-1-(4-chlorophenyl)-3-morpholin-4-ylpropyl]-1-(7H-pyrrolo[2,3-d]pyrimidin-4-yl)piperidine-4-carboxamide]?
A: IC50 [2]: 10 nM; IC50 [3]: 310 nM

Q: Which IC50 [2] does the source give for `NC1(C(=O)N[C@@H](CCN2CCNCC2)c2ccc(Cl)cc2)CCN(c2ncnc3[nH]ccc23)CC1` [Example 53, 4-amino-N-[(1S)-1-(4-chlorophenyl)-3-piperazin-1-ylpropyl]-1-(7H-pyrrolo[2,3-d]pyrimidin-4-yl)piperidine-4-carboxamide] here?
A: 6.3 nM

Q: What about the IC50 [3] of the same compound?
A: > 2400 nM

Q: With `NC1(C(=O)N[C@@H](CCn2ccnc2)c2ccc(Cl)cc2)CCN(c2ncnc3[nH]ccc23)CC1` [Example 54, 4-amino-N-[(1S)-1-(4-chlorophenyl)-3-(1H-imidazol-1-yl)propyl]-1-(7H-pyrrolo[2,3-d]pyrimidin-4-yl)piperidine-4-carboxamide] as the compound, how does the IC50 [2] read?
A: 3.4 nM

Q: And the IC50 [3]?
A: 180 nM

Q: For `NC1(C(=O)NC(Cc2ncc[nH]2)c2ccc(Cl)cc2)CCN(c2ncnc3[nH]ccc23)CC1` (stereo not drawn) [Example 59, 4-amino-N-(1-(4-chlorophenyl)-2-(1H-imidazol-2-yl)ethyl)-1-(7H-pyrrolo[2,3-d]pyrimidin-4-yl)piperidine-4-carboxamide], which IC50 [2] is on record?
A: 6.3 nM

Q: And the IC50 [3]?
A: 840 nM

Q: For `NC1(C(=O)NC(Cn2cccn2)c2ccc(Cl)cc2)CCN(c2ncnc3[nH]ccc23)CC1` (stereo not drawn) [Example 60, 4-amino-N-[1-(4-chlorophenyl)-2-(1H-pyrazol-1-yl)ethyl]-1-(7H-pyrrolo[2,3-d]pyrimidin-4-yl)piperidine-4-carboxamide], which IC50 [2] is on record?
A: 23 nM

Q: And the IC50 [3]?
A: 470 nM

Q: With `Cc1cc(CC(NC(=O)C2(N)CCN(c3ncnc4[nH]ccc34)CC2)c2ccc(Cl)cc2)on1` (stereo not drawn) [Example 61, 4-amino-N-[1-(4-chlorophenyl)-2-(3-methylisoxazol-5-yl)ethyl]-1-(7H-pyrrolo[2,3-d]pyrimidin-4-yl)piperidine-4-carboxamide] as the compound, how does the IC50 [2] read?
A: 23 nM

Q: What about the IC50 [3] of the same compound?
A: 850 nM

Q: Which results are given for `NC1(C(=O)NC(Cc2nccs2)c2ccc(Cl)cc2)CCN(c2ncnc3[nH]ccc23)CC1` (stereo not drawn) [Example 62, 4-amino-N-(1-(4-chlorophenyl)-2-(thiazol-2-yl)ethyl)-1-(7H-pyrrolo[2,3-d]pyrimidin-4-yl)piperidine-4-carboxamide]?
A: IC50 [2]: 28 nM; IC50 [3]: 560 nM

Q: For `NC(=O)CC(NC(=O)C1(N)CCN(c2ncnc3[nH]ccc23)CC1)c1ccc(Cl)cc1` (stereo not drawn) [Example 66, 4-amino-N-(3-amino-1-(4-chlorophenyl)-3-oxopropyl)-1-(7H-pyrrolo[2,3-d]pyrimidin-4-yl)piperidine-4-carboxamide], which IC50 ([2]; tested once only) is on record?
A: 6.6 nM

Q: What about the IC50 [3] of the same compound?
A: 990 nM

Q: For `NC(=O)NCCC(NC(=O)C1(N)CCN(c2ncnc3[nH]ccc23)CC1)c1ccc(Cl)cc1` (stereo not drawn) [Example 67, 4-amino-N-(1-(4-chlorophenyl)-3-ureidopropyl)-1-(7H-pyrrolo[2,3-d]pyrimidin-4-yl)piperidine-4-carboxamide], which IC50 ([2]; tested once only) is on record?
A: 7.7 nM

Q: And the IC50 [3]?
A: 890 nM

Q: With `N#CCC(NC(=O)C1(N)CCN(c2ncnc3[nH]ccc23)CC1)c1ccc(Cl)cc1` (stereo not drawn) [Example 68, 4-amino-N-(1-(4-chlorophenyl)-2-cyanoethyl)-1-(7H-pyrrolo[2,3-d]pyrimidin-4-yl)piperidine-4-carboxamide] as the compound, how does the IC50 [2] read?
A: 12 nM

Q: What about the IC50 [3] of the same compound?
A: 340 nM
